Measurements: patent US8716281B2, “Pyrimidine compounds that inhibit anaplastic lymphoma kinase” (Amgen Inc., priority 2010, dated 2014)

molecular target: T1, wild-type human ALK cytoplasmic domain (amino acids 1058-1620) (Homo sapiens, UniProt Q9UM73); assay: ALK Inhibition in Enzyme Assay (Lance TR-FRET); assay type: biochemical; conditions: 2 nM enzyme, ATP at 40 μM (Km apparent), 90 minutes, mean of three replicates; read-out: ALK IC50
T1 construct: The cytoplasmic domain (amino acids 1058-1620) of wild-type human ALK; GST (N); made in house; host or cells: SF9 insect cells
How it was run: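 TR-FRET read-out (Eu-W1024 PT66 anti-phosphotyrosine plus streptavidin-allophycocyanin, 320 nm excitation) quantified biotinylated peptide phosphorylation by the purified kinase. Reaction ran 90 minutes at room temperature before quenching with 20 mM EDTA in Tris pH 7.5 buffer with NaCl, BSA and Tween-20.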

T1 sequence (Q9UM73 1058-1620): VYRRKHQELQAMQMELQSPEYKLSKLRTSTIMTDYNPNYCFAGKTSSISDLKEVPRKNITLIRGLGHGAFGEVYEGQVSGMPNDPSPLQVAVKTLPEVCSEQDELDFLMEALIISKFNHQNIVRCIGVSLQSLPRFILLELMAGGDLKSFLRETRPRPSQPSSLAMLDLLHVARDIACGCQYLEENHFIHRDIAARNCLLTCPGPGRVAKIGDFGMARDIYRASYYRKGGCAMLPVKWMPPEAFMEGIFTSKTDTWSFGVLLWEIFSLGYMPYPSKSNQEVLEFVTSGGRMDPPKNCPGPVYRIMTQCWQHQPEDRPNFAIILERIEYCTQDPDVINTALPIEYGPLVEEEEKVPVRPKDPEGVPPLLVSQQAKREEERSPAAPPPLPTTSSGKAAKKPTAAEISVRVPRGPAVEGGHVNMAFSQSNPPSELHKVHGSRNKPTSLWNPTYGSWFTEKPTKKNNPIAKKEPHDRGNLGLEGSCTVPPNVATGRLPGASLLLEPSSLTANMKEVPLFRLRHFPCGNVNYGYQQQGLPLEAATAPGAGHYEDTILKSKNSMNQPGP

Row | Compound | IC50
1 | COc1cc(Nc2nccc(N3CCC[C@H](C(=O)NCCc4cccc(C(F)(F)F)c4)C3)n2)cc(OC)c1OC [Example 96, (S)-N-(2-(3-(trifluoromethyl)phenyl)ethyl)-1-(2-((3,4,5-trimethoxyphenyl)amino)-4-pyrimidinyl)-3-piperidinecarboxamide] | < 50 nM
2 | COc1cc(Nc2nccc(N3CCC[C@H](C(=O)NCCc4ccc(C)c(C)c4)C3)n2)cc(OC)c1OC [Example 97, (S)-N-(2-(3,4-dimethylphenyl)ethyl)-1-(2-((3,4,5-trimethoxyphenyl)amino)-4-pyrimidinyl)-3-piperidinecarboxamide] | 1000 to 5000 nM
3 | COc1cc(Nc2nccc(N3CCC[C@H](C(=O)NC[C@@H](C)c4ccccc4)C3)n2)cc(OC)c1OC [Example 98, (S)-N-((S)-2-phenylpropyl)-1-(2-((3,4,5-trimethoxyphenyl)amino)-4-pyrimidinyl)-3-piperidinecarboxamide] | 100 to 1000 nM
4 | COc1cc(Nc2nccc(N3CCC[C@H](C(=O)NCCc4ccccc4Cl)C3)n2)cc(OC)c1OC [Example 99, (S)-N-(2-(2-chlorophenyl)ethyl)-1-(2-((3,4,5-trimethoxyphenyl)amino)-4-pyrimidinyl)-3-piperidinecarboxamide] | 1000 to 5000 nM
5 | COc1cc(Nc2nccc(N3CCC[C@H](C(=O)NCCc4ccc(F)cc4)C3)n2)cc(OC)c1OC [Example 100, (S)-N-(2-(4-fluorophenyl)ethyl)-1-(2-((3,4,5-trimethoxyphenyl)amino)-4-pyrimidinyl)-3-piperidinecarboxamide] | 100 to 1000 nM
6 | COc1cc(Nc2nccc(N3CCC[C@H](C(=O)NC[C@H](C)c4ccccc4)C3)n2)cc(OC)c1OC [Example 101, (S)-N-((R)-2-phenylpropyl)-1-(2-((3,4,5-trimethoxyphenyl)amino)-4-pyrimidinyl)-3-piperidinecarboxamide] | 1000 to 5000 nM
7 | COc1cc(Nc2nccc(N3CCC[C@H](C(=O)NCCc4ccccc4F)C3)n2)cc(OC)c1OC [Example 102, (S)-N-(2-(2-fluorophenyl)ethyl)-1-(2-((3,4,5-trimethoxyphenyl)amino)-4-pyrimidinyl)-3-piperidinecarboxamide] | 100 to 1000 nM
8 | COc1cc(Nc2nccc(N3CCC[C@H](C(=O)NCc4cccc(F)c4)C3)n2)cc(OC)c1OC [Example 104, (S)-N-(3-fluorobenzyl)-1-(2-((3,4,5-trimethoxyphenyl)amino)-4-pyrimidinyl)-3-piperidinecarboxamide] | 100 to 1000 nM
9 | CCOC(=O)C(C)Cc1cccc(CNC(=O)[C@H]2CCCN(c3ccnc(Nc4cc(OC)c(OC)c(OC)c4)n3)C2)c1 (stereo partly drawn) [Example 109, ethyl 2-methyl-3-(3-(((((S)-1-(2-((3,4,5-trimethoxyphenyl)amino)-4-pyrimidinyl)-3-piperidinyl)carbonyl)amino)methyl)phenyl)propanoate] | 100 to 1000 nM
10 | COc1cc(Nc2nccc(N3CCC[C@H](C(=O)NCc4cccc(-n5cccc5)c4)C3)n2)cc(OC)c1OC [Example 110, (S)-N-(3-(1H-pyrrol-1-yl)benzyl)-1-(2-((3,4,5-trimethoxyphenyl)amino)-4-pyrimidinyl)-3-piperidinecarboxamide] | < 50 nM
11 | COc1cc(Nc2nccc(N3CCC[C@H](C(=O)NCc4cccc(-n5cccn5)c4)C3)n2)cc(OC)c1OC [Example 111, (S)-N-(3-(1H-pyrazol-1-yl)benzyl)-1-(2-((3,4,5-trimethoxyphenyl)amino)-4-pyrimidinyl)-3-piperidinecarboxamide] | 100 to 1000 nM
12 | COc1cc(Nc2nccc(N3CCC[C@H](C(=O)NCc4cccc(Br)c4)C3)n2)cc(OC)c1OC [Example 113, (S)-N-(3-bromobenzyl)-1-(2-((3,4,5-trimethoxyphenyl)amino)-4-pyrimidinyl)-3-piperidinecarboxamide] | < 50 nM
13 | COc1cc(Nc2nccc(N3CCC[C@H](C(=O)NCc4ccc(C#N)cc4)C3)n2)cc(OC)c1OC [Example 115, (S)-N-(4-cyanobenzyl)-1-(2-((3,4,5-trimethoxyphenyl)amino)-4-pyrimidinyl)-3-piperidinecarboxamide] | 100 to 1000 nM
14 | COc1cc(Nc2nccc(N3CCC[C@H](C(=O)NCc4ccc(C(C)C)cc4)C3)n2)cc(OC)c1OC [Example 117, (S)-N-(4-(1-methylethyl)benzyl)-1-(2-((3,4,5-trimethoxyphenyl)amino)-4-pyrimidinyl)-3-piperidinecarboxamide] | < 50 nM
15 | COc1cc(Nc2nccc(N3CCC[C@H](C(=O)NCc4ccc(-c5cc(Cl)cc(Cl)c5)cc4)C3)n2)cc(OC)c1OC [Example 120, (S)-N-((3′,5′-dichloro-4-biphenylyl)methyl)-1-(2-((3,4,5-trimethoxyphenyl)amino)-4-pyrimidinyl)-3-piperidinecarboxamide] | 1000 to 5000 nM
16 | COc1cc(Nc2nccc(N3CCC[C@H](C(=O)NCc4ccc(-c5ccccc5Cl)cc4)C3)n2)cc(OC)c1OC [Example 121, (S)-N-((2′-chloro-4-biphenylyl)methyl)-1-(2-((3,4,5-trimethoxyphenyl)amino)-4-pyrimidinyl)-3-piperidinecarboxamide] | 100 to 1000 nM

Further lines, results first:

Row | IC50 | Compound
17 | 1000 to 5000 nM | COc1cc(Nc2nccc(N3CCC[C@H](C(=O)NCc4cccc(Oc5ccc(Cl)cc5)c4)C3)n2)cc(OC)c1OC [Example 105, (S)-N-(3-(4-chlorophenoxy)benzyl)-1-(2-((3,4,5-trimethoxyphenyl)amino)-4-pyrimidinyl)-3-piperidinecarboxamide]
18 | < 50 nM | COc1cc(Nc2nccc(N3CCC[C@H](C(=O)NCc4cccc(-c5ccc(Cl)cc5)c4)C3)n2)cc(OC)c1OC [Example 106, (S)-N-((4′-chloro-3-biphenylyl)methyl)-1-(2-((3,4,5-trimethoxyphenyl)amino)-4-pyrimidinyl)-3-piperidinecarboxamide]
19 | < 50 nM | COc1cc(Nc2nccc(N3CCC[C@H](C(=O)NCc4cccc(-c5ccc(F)cc5)c4)C3)n2)cc(OC)c1OC [Example 108, (S)-N-((4′-fluoro-3-biphenylyl)methyl)-1-(2-((3,4,5-trimethoxyphenyl)amino)-4-pyrimidinyl)-3-piperidinecarboxamide]
20 | 1000 to 5000 nM | COc1cc(Nc2nccc(N3CCC[C@H](C(=O)NCc4cccc(Oc5ccc(C)cc5)c4)C3)n2)cc(OC)c1OC [Example 114, (S)-N-(3-(4-methylphenoxy)benzyl)-1-(2-((3,4,5-trimethoxyphenyl)amino)-4-pyrimidinyl)-3-piperidinecarboxamide]
21 | 50 to 100 nM | COc1cc(Nc2nccc(N3CCC[C@H](C(=O)NCc4ccc(Oc5ccccc5)cc4)C3)n2)cc(OC)c1OC [Example 116, (S)-N-(4-phenoxybenzyl)-1-(2-((3,4,5-trimethoxyphenyl)amino)-4-pyrimidinyl)-3-piperidinecarboxamide]
22 | 100 to 1000 nM | COc1cc(Nc2nccc(N3CCC[C@H](C(=O)NCc4ccc(Oc5ccc(Cl)cc5)cc4)C3)n2)cc(OC)c1OC [Example 118, (S)-N-(4-(4-chlorophenoxy)benzyl)-1-(2-((3,4,5-trimethoxyphenyl)amino)-4-pyrimidinyl)-3-piperidinecarboxamide]
23 | 100 to 1000 nM | COc1cc(Nc2nccc(N3CCC[C@H](C(=O)NCc4ccc(Oc5ccc(C)cc5)cc4)C3)n2)cc(OC)c1OC [Example 119, (S)-N-(4-(4-methylphenoxy)benzyl)-1-(2-((3,4,5-trimethoxyphenyl)amino)-4-pyrimidinyl)-3-piperidinecarboxamide]
